According to paper doi:10.1101/2023.07.01.547314v1 (biorxiv, 2023):
Where a chain is given by its changes, count along the chain named.

Assays:
A2BR [1] = molecular target: T1, A2BR (Homo sapiens, UniProt P29275); experiment: GloSensor cAMP assay, HEK293; format: cell-based
T1 sequence (P29275 1-332): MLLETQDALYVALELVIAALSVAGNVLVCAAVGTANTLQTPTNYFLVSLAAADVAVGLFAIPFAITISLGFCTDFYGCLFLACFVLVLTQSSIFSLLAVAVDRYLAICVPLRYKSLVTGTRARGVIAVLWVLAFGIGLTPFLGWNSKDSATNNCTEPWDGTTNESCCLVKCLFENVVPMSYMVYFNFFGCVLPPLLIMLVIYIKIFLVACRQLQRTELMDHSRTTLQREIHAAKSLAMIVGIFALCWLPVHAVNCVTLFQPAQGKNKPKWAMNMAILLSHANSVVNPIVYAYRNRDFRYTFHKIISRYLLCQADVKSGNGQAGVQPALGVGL

A2BR [2] = molecular target: T2, A2BR (Homo sapiens, UniProt P29275, N273Y); experiment: GloSensor cAMP assay, HEK293; format: cell-based
T2 sequence (P29275 1-332 N273Y): T1 sequence (P29275 1-332) with N273Y

A2BR [3] = molecular target: T3, A2BR (Homo sapiens, UniProt P29275, Y10F); experiment: GloSensor cAMP assay, HEK293; format: cell-based
T3 sequence (P29275 1-332 Y10F): T1 sequence (P29275 1-332) with Y10F

A2AR [4] = molecular target: A2AR (Homo sapiens, UniProt P29274, Y271N); experiment: cell-based
A2AR [5] = molecular target: A2AR (Homo sapiens, UniProt P29274); experiment: cell-based
A2AR [6] = molecular target: A2AR (Homo sapiens, UniProt P29274, Y9F); experiment: cell-based
Sequence of A2AR (Homo sapiens, UniProt P29274, Y9F) (P29274 whole entry Y9F): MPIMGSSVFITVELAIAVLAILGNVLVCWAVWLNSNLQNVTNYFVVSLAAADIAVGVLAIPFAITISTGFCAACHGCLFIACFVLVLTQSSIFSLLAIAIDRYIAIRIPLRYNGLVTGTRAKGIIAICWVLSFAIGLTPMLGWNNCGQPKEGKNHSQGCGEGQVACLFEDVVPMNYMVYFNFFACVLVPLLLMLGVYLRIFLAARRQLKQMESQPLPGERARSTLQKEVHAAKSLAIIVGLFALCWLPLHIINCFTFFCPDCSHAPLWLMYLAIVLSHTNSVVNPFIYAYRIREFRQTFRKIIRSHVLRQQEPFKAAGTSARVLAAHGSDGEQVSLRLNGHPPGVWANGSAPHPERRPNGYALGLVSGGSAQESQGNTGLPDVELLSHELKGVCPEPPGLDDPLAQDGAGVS

Sequence of A2AR (Homo sapiens, UniProt P29274) (P29274 whole entry): as the sequence (P29274 whole entry Y9F) above, with F9Y counted along it
Sequence of A2AR (Homo sapiens, UniProt P29274, Y271N) (P29274 whole entry Y271N): as the sequence (P29274 whole entry Y9F) above, with F9Y, Y271N counted along it

SMILES | IC50 (A2BR [1]) | IC50 (A2BR [2]) | IC50 (A2BR [3]) | IC50 (A2AR [4]) | IC50 (A2AR [5]) | IC50 (A2AR [6])
Cc1c(C#N)cccc1-c1cc(-c2ccn(Cc3cccc(C(C)(C)O)n3)c(=O)c2)nc(N)n1 [2-118, 3-[2-amino-6-[1-[[6-(2-hydroxypropan-2-yl)pyridin-2-yl]methyl]-2-oxo-1,2-dihydropyridin-4-yl]pyrimidin-4-yl]-2-methylbenzonitrile] | 2630 nM | 1210 nM | 441 nM |  |  | 
Cc1c(C#N)cccc1-c1cc(-c2cn(Cc3cccc(C(C)(C)O)n3)nn2)nc(N)n1 [AB928, 3-[2-amino-6-[1-[[6-(2-hydroxypropan-2-yl)pyridin-2-yl]methyl]triazol-4-yl]pyrimidin-4-yl]-2-methylbenzonitrile] | 8.18 nM | 7.46 nM | 1.29 nM | 65.6 nM | 3.21 nM | 1.78 nM
